According to US10435412B2, “Selective modulators of the activity of the GPR55 receptor: chromenopyrazole derivatives” (Consejo Superior de Investigaciones Cientificas (CSIC), priority 2015, dated 2019):

Tests used:
GPR55 receptor [1] = target: T1, GPR55 receptor (Homo sapiens, UniProt Q9Y2T6); assay: GPR55 agonist activity, real-time cell impedance (xCELLigence) in hGPR55-HEK293 cells; type: cell-based; details: mean (95% confidence interval); for Emax: read-out: Emax (%), agonist action on GPR55
T1 construct: expressed in transfected cells
T1 sequence (Q9Y2T6 whole entry): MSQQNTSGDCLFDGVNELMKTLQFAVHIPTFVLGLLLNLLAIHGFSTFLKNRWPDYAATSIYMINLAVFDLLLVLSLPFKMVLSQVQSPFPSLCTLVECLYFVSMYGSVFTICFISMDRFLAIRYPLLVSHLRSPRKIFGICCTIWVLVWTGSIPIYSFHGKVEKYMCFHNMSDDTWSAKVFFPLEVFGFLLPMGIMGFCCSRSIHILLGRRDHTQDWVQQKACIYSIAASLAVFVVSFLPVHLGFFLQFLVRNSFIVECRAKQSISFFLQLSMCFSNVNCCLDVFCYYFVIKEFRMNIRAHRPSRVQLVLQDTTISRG
Experimental: (§1) In the present invention, the activity of the compounds of the invention on the GPR55 receptor was assessed by performing in vitro assays with real-time cell impedance measurements (xCELLigence experiments). These assays were performed on a HEK293 human embryonic kidney cell line overexpressing the recombinant GPR55 receptor in stable form (hGPR55-HEK293). The cells were seeded one day prior to carrying out the stimulation with the exemplary compounds of the present invention.
Activation of the GPR55 receptor by an agonist compound causes a cellular impedance detected by the system and compared to lysophosphatidylinositol (LPI), a reference GPR55 ligand. The effect of LPI measured at a concentration of 1 μM was set at 100%. […] Therefore, dose-response curves were determined at this time. Cell impedance values were normalized for each well, just prior to addition of the inventive compound of the invention to be evaluated.

GPR55 receptor [2] = target: T1, GPR55 receptor; assay: GPR55 antagonist activity: inhibition of LPI-mediated GPR55 stimulation (xCELLigence) in hGPR55-HEK293 cells; type: cell-based; details: LPI alone or with example compound at 1 μM, mean (95% confidence interval)
Experimental: as §1
The ability of the exemplary compounds of the patent to inhibit LPI-mediated GPR55 receptor stimulation has been evaluated.
Values represent the mean with a 95% confidence interval calculated with 4 independent experiments performed in duplicate. Significant differences with respect to LPI values are considered due to lack of overlap of confidence intervals.

[3] = maximum effect relative to LPI 1 μM = 100%

| Compound | melting point [°C] | Emax (GPR55 receptor [1]; [3]) [%] | other results |
| --- | --- | --- | --- |
| COc1ccc2c(c1)OC(C)(C)c1cn(CCN3CCN(C(=O)c4cccs4)CC3)nc1-2 [Example 6, 2-(2-(4-(2-thienoyl)piperazinyl)ethyl)-2,4-dihydro-7-methoxy-4,4-dimethylchromeno[4,3-c]pyrazole] | 163 to 165 | 45 |  |
| COc1ccc2c(c1)OC(C)(C)c1cn(CCN3CCN(C(=O)C(C)(C)C)CC3)nc1-2 [Example 10, 2-(2-(4-pivaloyl-piperazinyl)ethyl)-2,4-dihydro-7-methoxy-4,4-dimethylchromeno[4,3-c]pyrazole] |  | 49 |  |
| COc1ccc2c(c1)OC(C)(C)c1cn(CCN3CCN(C(=O)c4ccccc4)CC3)nc1-2 [Example 4, 2-(2-(4-benzoyl-piperazinyl)ethyl)-2,4-dihydro-7-methoxy-4,4-dimethylchromeno[4,3-c]pyrazole] |  | 51 |  |
| COc1ccc2c(c1)OC(C)(C)c1cn(CCN3CCN(C(=O)C4CCCO4)CC3)nc1-2 (stereo not shown) [Example 8, 2-(2-(4-(2-tetrahydrofuroyl)piperazinyl)ethyl)-2,4-dihydro-7-methoxy-4,4-dimethylchromeno[4,3-c]pyrazole] | 158 to 160 | 51 |  |
| COc1ccc2c(c1)OC(C)(C)c1cn(CNC(=O)CN3CCN(c4ccccc4OC)CC3)nc1-2 [Example 14, 2-(2-(4-(2-methoxyphenyl)piperazinyl)acetamidomethyl)-2,4-dihydro-7-methoxy-4,4-dimethylchromeno[4,3-c]pyrazole] |  | 51 |  |
| COc1ccc2c(c1)OC(C)(C)c1cn(CCN3CCN(C(=O)c4ccco4)CC3)nc1-2 [Example 2, 2-(2-(4-(2-furoyl)piperazinyl)ethyl)-2,4-dihydro-7-methoxy-4,4-dimethylchromeno[4,3-c]pyrazole] |  | 43 |  |
| COc1ccc2c(c1)OC(C)(C)c1cn(CCN3CCN(C(=O)C4CCCCC4)CC3)nc1-2 [Example 9, 2-(2-(4-cyclohexylcarbonyl-piperazinyl)ethyl)-2,4-dihydro-7-methoxy-4,4-dimethylchromeno[4,3-c]pyrazole] | 151 to 152 | 47 |  |
| lysophosphatidylinositol [LPI, reference compound] |  |  | EC50 (GPR55 receptor [2]; hGPR55-HEK293 cells, read-out: EC50 (nM) of LPI in the presence of example compound): 1.6 nM; Emax (%) of LPI in the presence of example compound (GPR55 receptor [2]; relative to LPI activity): 99 (90-108) %; EC50 (GPR55 receptor [1]; hGPR55-HEK293 cells, xCELLigence, 5 minutes after addition, 4 experiments, read-out: EC50 (nM), agonist action on GPR55): 2.82 nM; Emax (%), agonist action on GPR55 (GPR55 receptor [1]; [3]): 100 (81-118) % |
| COc1ccc2c(c1)OC(C)(C)c1cn(CCN3CCN(C(=O)COc4ccccc4)CC3)nc1-2 [Example 7, 2-(2-(4-phenoxyacetylpiperazinyl)ethyl)-2,4-dihydro-7-methoxy-4,4-dimethylchromeno[4,3-c]pyrazole] | 177 to 179 | 52 |  |
